Laboratory results published in patent US20240335442A1 (Eurofarma Laboratórios S.A., priority 2021, published 2024).

What was measured:
[1] = biological target: human sodium channel Nav 1.8 (Homo sapiens (Human), UniProt Q9Y5Y9); experiment: Automated whole-cell voltage-clamp (ScreenPatch 384P), Nav 1.8 sodium current, Protocol 2; assay type: cell-based; conditions: read-out: Nav1.8 IC50
Procedure: (§1) Biological assays were performed on Chinese hamster ovary (CHO) cells expressing the human sodium channels Nav 1.8 and Nav 1.7 stably.
(§2) The experimental voltage-clamp protocol using the whole cell configuration was established on the automated ScreenPatch® 384P platform (SP384PE, Nanion Technologies, Livingston, NJ) and recording of the results was performed with a Nanion 384-well Patch Clamp chip (NPC) (Nanion Technologies, Livingston, NJ).
(§3) Compounds of Formula (I), were diluted in eight concentrations in the extracellular solution composed of physiological saline, buffered with HEPES (mM): NaCl, 137; KCl, 4; CaCl2, 3.8; MgCl2, 1; HEPES, 10; Glucose, 10; pH 7.4. The […], 50; CsF, 90; MgCl2, 5; EGTA, 5; HEPES, 10; pH 7.2. The duration of exposure of each compound with the cells expressing Nav 1.7 or Nav 1.8 was at least five minutes and the assays were performed at room temperature.
(§4) The measurements of the sodium currents of Nav 1.8 and Nav 1.7 were obtained using the voltage protocols described below: • Protocol 1: A holding voltage of-90 mV was established followed by a voltage phase of 200 ms to-120 mV, followed by a voltage step of 10 mV for 1 second for Nav 1.8 or 0 mV for Nav 1.7, followed by a step of-100 mV for 20 ms, followed by a step of 20 ms for 10 mV for Nav 1.8 or 0 mV for Nav 1.7 (TP1A) before returning to the holding voltage of-90 mV. • Protocol 2: A holding voltage of-100 mV was established followed by an inactivation voltage step at −40 mV for 8 seconds, followed by a −100 mV step for 20 ms, followed by a 20 ms step for 10 mV for Nav 1.8 or 0 mV for Nav 1.7 (TP1A) before returning to the holding voltage of-100 mV.
(§5) Protocols were repeated at a frequency of 0.1 Hz (Protocol 1) or 0.05 Hz (Protocol 2) and current amplitude was quantified over the TP1A phase log. The variation in the peak amplitude of the current was evaluated according to the Formula described below, after exposure of the cells expressing the channels, at each concentration of the different compounds:
(§6) where ITP1A,basal, and ITP1A,molecule represent the entry peaks of sodium currents into TP1A prior to exposure to the compound and in the presence of the compound, respectively.
(§7) The decrease in peak current amplitude, after exposure of the cells to the compounds, was used to calculate the percent relative blocking of the channels relative to the positive control according to the Formula below: […]
(§8) where % V and % CP represent the averages of the values of current inhibition with a vehicle (DMSO) and positive controls, respectively. The sodium currents of the positive control were considered as 100%.
(§9) where [Test] represents the concentration of the evaluated molecule, IC50 is the concentration of the compound that generates half of the maximum inhibition, N is the Hill's coefficient and % Block′ is the percentage of the sodium channel current (Nav 1.8 and Nav 1.7) inhibited at each concentration of the evaluated molecule. Data were obtained by non linear least squares regression with XL fit for Excel (Microsoft, Redmond, WA).
(§10) Compounds were tested in at least one assay to obtain the IC50 value.

[2] = biological target: human sodium channel Nav 1.7 (Homo sapiens (Human), UniProt Q15858); experiment: Automated whole-cell voltage-clamp (ScreenPatch 384P), Nav 1.7 sodium current, Protocol 2; assay type: cell-based; conditions: read-out: Nav1.7 IC50
Procedure: as §1, §2, §3, §4, §5, §6, §7, §8, §9, §10

human sodium channel Nav 1.8, sequence (Q9Y5Y9 whole entry): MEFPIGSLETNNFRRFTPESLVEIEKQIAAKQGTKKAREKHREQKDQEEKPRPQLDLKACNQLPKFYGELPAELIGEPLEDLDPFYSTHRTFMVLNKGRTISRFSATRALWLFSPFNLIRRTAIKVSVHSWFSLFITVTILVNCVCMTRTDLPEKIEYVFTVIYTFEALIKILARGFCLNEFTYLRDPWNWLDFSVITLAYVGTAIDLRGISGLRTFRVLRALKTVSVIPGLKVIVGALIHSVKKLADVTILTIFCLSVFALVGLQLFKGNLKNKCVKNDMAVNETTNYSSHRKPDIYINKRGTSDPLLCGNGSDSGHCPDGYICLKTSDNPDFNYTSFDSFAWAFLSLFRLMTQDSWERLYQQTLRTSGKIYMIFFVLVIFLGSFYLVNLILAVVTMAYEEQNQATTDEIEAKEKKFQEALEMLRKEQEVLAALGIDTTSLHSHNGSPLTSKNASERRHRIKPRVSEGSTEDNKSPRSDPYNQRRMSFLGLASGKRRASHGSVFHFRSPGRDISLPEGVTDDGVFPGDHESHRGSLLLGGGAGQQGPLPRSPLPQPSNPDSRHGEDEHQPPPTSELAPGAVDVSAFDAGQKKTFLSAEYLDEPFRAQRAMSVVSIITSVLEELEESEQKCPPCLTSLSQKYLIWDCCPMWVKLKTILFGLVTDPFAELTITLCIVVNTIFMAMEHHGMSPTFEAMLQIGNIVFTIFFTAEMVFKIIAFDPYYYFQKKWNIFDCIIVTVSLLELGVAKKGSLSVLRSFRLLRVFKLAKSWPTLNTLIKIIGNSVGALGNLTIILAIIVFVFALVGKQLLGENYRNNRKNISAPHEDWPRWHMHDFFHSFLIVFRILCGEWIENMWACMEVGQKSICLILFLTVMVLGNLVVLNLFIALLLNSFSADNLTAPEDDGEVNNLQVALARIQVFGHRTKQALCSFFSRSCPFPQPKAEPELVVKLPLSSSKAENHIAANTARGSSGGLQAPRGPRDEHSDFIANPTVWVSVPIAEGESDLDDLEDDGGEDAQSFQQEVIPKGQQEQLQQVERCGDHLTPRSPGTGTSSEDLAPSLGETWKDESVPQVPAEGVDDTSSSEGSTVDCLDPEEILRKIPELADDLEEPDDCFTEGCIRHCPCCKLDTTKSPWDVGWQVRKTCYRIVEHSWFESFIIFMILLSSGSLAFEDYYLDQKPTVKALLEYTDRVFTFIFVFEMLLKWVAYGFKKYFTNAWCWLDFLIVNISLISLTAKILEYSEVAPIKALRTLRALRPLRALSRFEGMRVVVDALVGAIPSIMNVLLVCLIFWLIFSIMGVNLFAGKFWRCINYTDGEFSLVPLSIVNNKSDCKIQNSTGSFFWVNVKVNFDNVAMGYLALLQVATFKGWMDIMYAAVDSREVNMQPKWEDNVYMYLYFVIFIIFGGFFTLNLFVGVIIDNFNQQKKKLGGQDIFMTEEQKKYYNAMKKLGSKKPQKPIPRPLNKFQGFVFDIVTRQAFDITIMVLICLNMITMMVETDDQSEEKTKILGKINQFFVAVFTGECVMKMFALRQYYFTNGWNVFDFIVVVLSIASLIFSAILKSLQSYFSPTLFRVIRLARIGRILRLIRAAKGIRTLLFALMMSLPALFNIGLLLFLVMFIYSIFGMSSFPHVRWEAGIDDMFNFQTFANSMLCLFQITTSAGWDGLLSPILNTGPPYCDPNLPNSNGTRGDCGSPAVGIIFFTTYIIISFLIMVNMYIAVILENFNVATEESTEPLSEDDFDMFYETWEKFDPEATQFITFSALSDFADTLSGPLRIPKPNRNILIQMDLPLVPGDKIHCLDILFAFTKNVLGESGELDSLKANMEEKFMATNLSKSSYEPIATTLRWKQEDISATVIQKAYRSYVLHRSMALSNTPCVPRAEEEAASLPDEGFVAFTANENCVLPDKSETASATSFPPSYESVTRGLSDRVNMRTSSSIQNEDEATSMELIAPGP
human sodium channel Nav 1.7, sequence (Q15858 whole entry): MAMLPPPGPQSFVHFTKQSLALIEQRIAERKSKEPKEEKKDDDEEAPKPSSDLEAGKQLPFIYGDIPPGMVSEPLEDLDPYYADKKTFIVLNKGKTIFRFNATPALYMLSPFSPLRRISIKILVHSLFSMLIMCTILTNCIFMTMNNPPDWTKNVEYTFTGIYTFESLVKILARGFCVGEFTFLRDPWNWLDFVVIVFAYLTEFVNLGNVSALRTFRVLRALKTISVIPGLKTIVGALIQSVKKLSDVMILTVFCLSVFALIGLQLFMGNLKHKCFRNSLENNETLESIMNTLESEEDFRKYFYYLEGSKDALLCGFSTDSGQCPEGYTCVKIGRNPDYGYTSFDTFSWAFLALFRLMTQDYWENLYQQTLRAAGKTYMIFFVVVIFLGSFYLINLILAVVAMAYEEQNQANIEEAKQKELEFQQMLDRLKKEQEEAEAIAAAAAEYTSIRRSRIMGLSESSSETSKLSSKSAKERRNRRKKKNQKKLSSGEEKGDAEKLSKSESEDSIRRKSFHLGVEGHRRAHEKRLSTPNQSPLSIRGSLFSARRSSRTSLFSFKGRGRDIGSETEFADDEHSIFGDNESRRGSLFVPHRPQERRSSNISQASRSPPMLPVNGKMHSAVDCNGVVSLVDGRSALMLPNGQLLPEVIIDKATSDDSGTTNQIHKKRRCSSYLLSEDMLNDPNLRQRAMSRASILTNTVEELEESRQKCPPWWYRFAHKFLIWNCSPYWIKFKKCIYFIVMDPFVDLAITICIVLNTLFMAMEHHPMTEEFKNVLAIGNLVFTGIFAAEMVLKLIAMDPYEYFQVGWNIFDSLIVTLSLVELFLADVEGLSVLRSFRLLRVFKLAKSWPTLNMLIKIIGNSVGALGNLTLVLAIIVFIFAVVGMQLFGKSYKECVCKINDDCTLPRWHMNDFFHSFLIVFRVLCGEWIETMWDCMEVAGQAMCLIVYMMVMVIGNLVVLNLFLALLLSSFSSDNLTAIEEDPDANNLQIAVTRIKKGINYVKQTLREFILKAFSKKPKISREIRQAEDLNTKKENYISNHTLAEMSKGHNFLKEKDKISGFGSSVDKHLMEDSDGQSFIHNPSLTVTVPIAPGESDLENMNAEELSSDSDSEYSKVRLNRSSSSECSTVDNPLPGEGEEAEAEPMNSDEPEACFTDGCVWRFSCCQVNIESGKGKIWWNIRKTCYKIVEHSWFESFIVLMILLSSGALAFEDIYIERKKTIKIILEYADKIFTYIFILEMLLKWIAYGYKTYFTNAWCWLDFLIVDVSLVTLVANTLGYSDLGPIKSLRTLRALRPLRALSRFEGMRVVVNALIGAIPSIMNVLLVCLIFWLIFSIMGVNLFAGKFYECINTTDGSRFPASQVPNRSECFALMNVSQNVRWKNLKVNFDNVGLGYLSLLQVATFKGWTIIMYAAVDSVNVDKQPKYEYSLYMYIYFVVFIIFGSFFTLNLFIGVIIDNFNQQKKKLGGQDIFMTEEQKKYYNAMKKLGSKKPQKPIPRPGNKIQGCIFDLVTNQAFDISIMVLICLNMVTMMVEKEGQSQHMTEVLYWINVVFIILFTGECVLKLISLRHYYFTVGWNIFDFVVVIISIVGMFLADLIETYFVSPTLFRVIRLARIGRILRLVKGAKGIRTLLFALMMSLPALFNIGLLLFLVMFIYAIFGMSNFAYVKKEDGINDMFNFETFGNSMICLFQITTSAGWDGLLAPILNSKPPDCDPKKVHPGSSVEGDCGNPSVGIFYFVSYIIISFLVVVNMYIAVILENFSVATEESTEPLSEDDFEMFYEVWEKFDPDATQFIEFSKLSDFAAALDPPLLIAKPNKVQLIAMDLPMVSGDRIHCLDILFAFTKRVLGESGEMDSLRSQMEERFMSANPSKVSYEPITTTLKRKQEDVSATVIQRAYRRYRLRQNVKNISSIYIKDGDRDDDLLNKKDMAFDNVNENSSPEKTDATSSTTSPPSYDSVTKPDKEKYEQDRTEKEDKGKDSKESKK

Row | Compound | IC50 [1] | IC50 [2]
1 | COc1cc(/C=N/NC(=O)c2cncc(-c3ccc(Cl)cc3)n2)cc(OC)c1 [Compound 1, 6-(4-chlorophenyl)-N′-[(E)-(3,5-dimethoxyphenyl)methylidene]pyrazine-2-carbohydrazide] | > 1000 nM | > 1000 nM
2 | CCOc1ccc(-c2cncc(C(=O)N/N=C/c3cc(OC)cc(OC)c3)n2)cc1 [Compound 2, (E)-N′-(3,5-dimethoxybenzylidene)-6-(4-ethoxyphenyl)pyrazine-2-carbohydrazide] | 32.5 nM | 239 nM
3 | CCOc1ccc(-c2cncc(C(=O)N/N=C/c3cc(OC)ccc3OC)n2)cc1 [Compound 3, (E)-N′-(2,5-dimethoxybenzylidene)-6-(4-ethoxyphenyl)pyrazine-2-carbohydrazide] | 152 nM | 855 nM
4 | CCOc1ccc(-c2cncc(C(=O)N/N=C/c3cc(OC)cc4ocnc34)n2)cc1 [Compound 6, (E)-6-(4-ethoxyphenyl)-N′-((6-methoxybenzo[d]oxazol-4-yl)methylene)pyrazine-2-carbohydrazide] | > 300 nM | > 300 nM
5 | CCOc1ccc(-c2cncc(C(=O)N/N=C/c3ccnc(OC)c3)n2)cc1 [Compound 10, (E)-6-(4-ethoxyphenyl)-N′-((2-methoxypyridin-4-yl)methylene)pyrazine-2-carbohydrazide] | > 300 nM | > 300 nM
6 | CCOc1ccc(-c2cncc(C(=O)N/N=C/c3cc(OC)cc(OC)c3OC)n2)cc1 [Compound 13, (E)-6-(4-ethoxyphenyl)-N′-(2,3,5-trimethoxybenzylidene)pyrazine-2-carbohydrazide] | 73 nM | 189 nM
7 | CCOc1ccc(-c2cncc(C(=O)N/N=C/c3cc(OC)cc(OC)c3OCC)n2)cc1 [Compound 14, (E)-N′-(2-ethoxy-3,5-dimethoxybenzylidene)-6-(4-ethoxyphenyl)pyrazine-2-carbohydrazide] | 156 nM | 308 nM
8 | CCOc1ccc(-c2cncc(C(=O)N/N=C/c3cc(F)cc(OC)c3)n2)cc1 [Compound 15, (E)-6-(4-ethoxyphenyl)-N′-(3-fluoro-5-methoxybenzylidene)pyrazine-2-carbohydrazide] | 25.2 nM | 243 nM
9 | CCCOc1cc(/C=N/NC(=O)c2cncc(-c3ccc(OCC)cc3)n2)cc(OC)c1 [Compound 16, (E)-6-(4-ethoxyphenyl)-N′-(3-methoxy-5-propoxybenzylidene)pyrazine-2-carbohydrazide] | 93.3 nM | 224 nM
10 | CCOc1ccc(-c2cncc(C(=O)N/N=C/c3cc(OC)c(F)c(OC)c3)n2)cc1 [Compound 17, (E)-6-(4-ethoxyphenyl)-N′-(4-fluoro-3,5-dimethoxybenzylidene)pyrazine-2-carbohydrazide] | 232 nM | 7860 nM
11 | CCOc1ccc(-c2cncc(C(=O)N/N=C/c3cc(OC)ccc3Cl)n2)cc1 [Compound 18, (E)-N′-(2-chloro-5-methoxybenzylidene)-6-(4-ethoxyphenyl)pyrazine-2-carbohydrazide] | 62.6 nM | 237 nM
12 | CCOc1ccc(-c2cncc(C(=O)N/N=C/c3cccc(OC)c3Cl)n2)cc1 [Compound 19, (E)-N′-(2-chloro-3-methoxybenzylidene)-6-(4-ethoxyphenyl)pyrazine-2-carbohydrazide] | 93.5 nM | 575 nM
13 | CCOc1ccc(-c2cncc(C(=O)N/N=C/c3cc(OC)ccc3F)n2)cc1 [Compound 20, (E)-6-(4-ethoxyphenyl)-N′-(2-fluoro-5-methoxybenzylidene)pyrazine-2-carbohydrazide] | 13.3 nM | 228 nM
14 | CCOc1ccc(-c2cncc(C(=O)N/N=C/c3cccc(OC)c3F)n2)cc1 [Compound 21, (E)-6-(4-ethoxyphenyl)-N′-(2-fluoro-3-methoxybenzylidene)pyrazine-2-carbohydrazide] | 74.5 nM | 268 nM
15 | CCOc1ccc(-c2cncc(C(=O)N/N=C/c3cccc(OC)c3)n2)cc1 [Compound 22, (E)-6-(4-ethoxyphenyl)-N′-(3-methoxybenzylidene)pyrazine-2-carbohydrazide] | 27.2 nM | 228 nM
16 | CCOc1ccc(-c2cncc(C(=O)N/N=C/c3ccccc3OC)n2)cc1 [Compound 26, (E)-6-(4-ethoxyphenyl)-N′-(2-methoxybenzylidene)pyrazine-2-carbohydrazide] | 24.9 nM | 322 nM
17 | CCOc1ccc(-c2cncc(C(=O)N/N=C/c3cccc(OC)c3OC)n2)cc1 [Compound 27, (E)-N′-(2,3-dimethoxybenzylidene)-6-(4-ethoxyphenyl)pyrazine-2-carbohydrazide] | 221 nM | 233 nM
18 | COc1cc(/C=N/NC(=O)c2cncc(-c3ccc(OC(C)C)cc3)n2)cc(OC)c1 [Compound 29, (E)-N′-(3,5-dimethoxybenzylidene)-6-(4-isopropoxyphenyl)pyrazine-2-carbohydrazide] | 51.3 nM | 63.1 nM
19 | COc1cc(/C=N/NC(=O)c2cncc(-c3ccc(OC4CCCC4)cc3)n2)cc(OC)c1 [Compound 30, 6-[4-(cyclopentyloxy)phenyl]-N′-[(E)-(3,5-dimethoxyphenyl)methylidene]pyrazine-2-carbohydrazide] | 102 nM | 55.6 nM
20 | COc1cc(/C=N/NC(=O)c2cncc(-c3ccc(OC(F)(F)F)cc3)n2)cc(OC)c1 [Compound 31, N′-[(E)-(3,5-dimethoxyphenyl)methylidene]-6-[4-(trifluoromethoxy)phenyl]pyrazine-2-carbohydrazide] | 132 nM | > 10000 nM
21 | CCCOc1ccc(-c2cncc(C(=O)N/N=C/c3cc(OC)cc(OC)c3)n2)cc1 [Compound 32, N′-[(E)-(3,5-dimethoxyphenyl)methylidene]-6-(4-propoxyphenyl)pyrazine-2-carbohydrazide] | 73.9 nM | 210 nM
22 | COc1ccc(-c2cncc(C(=O)N/N=C/c3cc[nH]c(=O)c3)n2)cc1 [Compound 34, (E)-6-(4-methoxyphenyl)-N′-((2-oxo-1,2-dihydropyridin-4-yl)methylene)pyrazine-2-carbohydrazide] | > 1000 nM | > 10000 nM
23 | COc1ccc(-c2cncc(C(=O)N/N=C/c3ccc(F)c(C(N)=O)c3)n2)cc1 [Compound 35, (E)-2-fluoro-5-((2-(6-(4-methoxyphenyl)pyrazine-2-carbonyl)hydrazono)methyl)benzamide] | > 1000 nM | > 10000 nM
24 | COc1ccc(-c2cncc(C(=O)N/N=C/c3ccnc(C(N)=O)c3)n2)cc1 [Compound 36, (E)-4-((2-(6-(4-methoxyphenyl)pyrazine-2-carobnyl)hydrazono)methyl)picolinamide] | > 1000 nM | > 10000 nM
25 | COc1ccc(-c2cncc(C(=O)N/N=C/c3cccc(OC)c3)n2)cc1 [Compound 37, (E)-N′-(3-methoxybenzylidene)-6-(4-methoxyphenyl)pyrazine-2-carbohydrazide] | 115 nM | 1570 nM
26 | COc1ccc(-c2cncc(C(=O)N/N=C/c3cccc(CN(C)C)c3)n2)cc1 [Compound 38, (E)-N′-(3-((dimethylamino)methyl)benzylidene)-6-(4-methoxyphenyl)pyrazine-2-carbohydrazide] | > 1000 nM | > 10000 nM
27 | CCCOc1cccc(/C=N/NC(=O)c2cncc(-c3ccc(OC)cc3)n2)c1 [Compound 40, (E)-6-(4-methoxyphenyl)-N′-(3-propoxybenzylidene)pyrazine-2-carbohydrazide] | 277 nM | 3360 nM
28 | COc1ccc(-c2cncc(C(=O)N/N=C/c3cccc(OC(C)C)c3)n2)cc1 [Compound 41, (E)-N′-(3-isopropoxybenzylidene)-6-(4-methoxyphenyl)pyrazine-2-carbohydrazide] | 94.5 nM | 3290 nM
29 | COc1ccc(-c2cncc(C(=O)N/N=C/c3ccccc3OC)n2)cc1 [Compound 42, (E)-N′-(2-methoxybenzylidene)-6-(4-methoxyphenyl)pyrazine-2-carbohydrazide] | 621 nM | 3900 nM
